Reference: PubChem BioAssay (NCI)
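Following 48 hours of exposure in 96-well plates, responses at five concentrations were used to interpolate endpoints linearly. Here, GI50 denotes the concentration required for 50% inhibition of growth. Definition used: TGI = concentration required for complete inhibition of growth.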

Assays:
Test in all cases: inhibition of tumour cell growth, NCI panel, 48 h; in the data active = GI50 below about 0.43 µM; inactive = the rest
[1] = tested on: 786-0 renal
[2] = tested on: A498 renal
[3] = tested on: A549 NSCLC
[4] = tested on: ACHN renal
[5] = tested on: BT-549 breast
[6] = tested on: CAKI-1 renal
[7] = tested on: CCRF-CEM leukemia
[8] = tested on: COLO 205 colon
[9] = tested on: DU-145 prostate
[10] = tested on: HCC-2998 colon
[11] = tested on: HCT-116 colon
[12] = tested on: HCT-15 colon
[13] = tested on: HL-60(TB) leukemia
[14] = tested on: HOP-62 NSCLC
[15] = tested on: HS 578T breast
[16] = tested on: HT29 colon
[17] = tested on: IGROV1 ovarian
[18] = tested on: K-562 leukemia
[19] = tested on: KM12 colon
[20] = tested on: LOX IMVI melanoma
[21] = tested on: M14 melanoma
[22] = tested on: MALME-3M melanoma
[23] = tested on: MCF7 breast
[24] = tested on: MDA-MB-231 breast
[25] = tested on: MDA-MB-435
[26] = tested on: MOLT-4 leukemia
[27] = tested on: NCI-H226 lung
[28] = tested on: NCI-H23 lung
[29] = tested on: NCI-H460 lung
[30] = tested on: NCI-H522 lung
[31] = tested on: NCI/ADR-RES ovarian
[32] = tested on: OVCAR-3 ovarian
[33] = tested on: OVCAR-4 ovarian
[34] = tested on: OVCAR-5 ovarian
[35] = tested on: OVCAR-8 ovarian
[36] = tested on: PC-3 prostate
[37] = tested on: RPMI-8226 leukemia
[38] = tested on: RXF 393 renal
[39] = tested on: SF-268 CNS
[40] = tested on: SF-295 CNS
[41] = tested on: SF-539 CNS
[42] = tested on: SK-MEL-2 melanoma
[43] = tested on: SK-MEL-28 melanoma
[44] = tested on: SK-MEL-5 melanoma
[45] = tested on: SK-OV-3 ovarian
[46] = tested on: SN12C renal
[47] = tested on: SNB-19 CNS
[48] = tested on: SNB-75 CNS
[49] = tested on: SR leukemia
[50] = tested on: SW-620 colon
[51] = tested on: T-47D breast
[52] = tested on: TK-10 renal
[53] = tested on: U251 CNS
[54] = tested on: UACC-257 melanoma
[55] = tested on: UACC-62 melanoma
[56] = tested on: UO-31 renal

O=C(N/N=C/c1ccccc1O)C(=O)Nc1ccc(F)cc1
52 µM: TGI [30]
22 µM: TGI [6]
15 µM: TGI [54]
inactive: GI50 [1] 6.96 µM | GI50 [2] 83.4 µM | GI50 [3] 3.67 µM | GI50 [4] 3.02 µM | GI50 [5] 18.1 µM | GI50 [6] 2.24 µM | GI50 [7] 1.35 µM | GI50 [8] 3.28 µM | GI50 [9] 7.14 µM | GI50 [10] 4.61 µM | GI50 [11] 3.19 µM | GI50 [12] 1.86 µM | GI50 [13] 2.02 µM | GI50 [14] 10.7 µM | GI50 [15] 33.8 µM | GI50 [16] 8.86 µM | GI50 [17] 4.29 µM | GI50 [18] 5.02 µM | GI50 [19] 6.97 µM | GI50 [20] 4.28 µM | GI50 [21] 4.87 µM | GI50 [22] 10.7 µM | GI50 [23] 3.52 µM | GI50 [24] 3.23 µM | GI50 [25] 8.4 µM | GI50 [26] 2.87 µM | GI50 [27] 16 µM | GI50 [28] 7.31 µM | GI50 [29] 2.74 µM | GI50 [30] 3.01 µM | GI50 [31] 3 µM | GI50 [32] 3.18 µM | GI50 [33] 2.53 µM | GI50 [34] 6.69 µM | GI50 [35] 4.3 µM | GI50 [36] 4.21 µM | GI50 [37] 7.9 µM | GI50 [38] 9.93 µM | GI50 [39] 2.77 µM | GI50 [40] 1.81 µM | GI50 [41] 2.98 µM | GI50 [42] 22.9 µM | GI50 [43] 8.04 µM | GI50 [44] 5.62 µM | GI50 [45] 10.3 µM | GI50 [46] 6.46 µM | GI50 [47] 4.91 µM | GI50 [48] 14.2 µM | GI50 [49] 2.52 µM | GI50 [50] 6.26 µM | GI50 [51] 6.63 µM | GI50 [52] 6.12 µM | GI50 [53] 2.75 µM | GI50 [54] 2.85 µM | GI50 [55] 3.32 µM | GI50 [56] 2.18 µM
15.5 µM: TGI [40]
40.4 µM: TGI [21]
8.75 µM: TGI [13]
69.4 µM: TGI [48]
23.1 µM: TGI [55]
54.1 µM: TGI [56]
> 100 µM: TGI [1] | TGI [2] | TGI [3] | TGI [4] | TGI [5] | TGI [8] | TGI [9] | TGI [10] | TGI [11] | TGI [12] | TGI [14] | TGI [15] | TGI [16] | TGI [17] | TGI [18] | TGI [19] | TGI [20] | TGI [23] | TGI [24] | TGI [25] | TGI [26] | TGI [27] | TGI [28] | TGI [29] | TGI [31] | TGI [32] | TGI [33] | TGI [34] | TGI [35] | TGI [36] | TGI [37] | TGI [38] | TGI [39] | TGI [42] | TGI [43] | TGI [44] | TGI [45] | TGI [46] | TGI [47] | TGI [49] | TGI [50] | TGI [51] | TGI [52] | TGI [53]
18.5 µM: TGI [41]
82.7 µM: TGI [22]
13.4 µM: TGI [7]
